Results on 7 compounds are retold here after patent US8039668B2, “Naphthalene-based inhibitors of anti-apoptotic proteins” (Burnham Institute for Medical Research, priority 2008, dated 2011).

Usually IC50 stands for the point on the concentration scale where inhibition reaches its midpoint. As usually defined, the EC50 is the concentration giving half of the maximal effect.

The test system of data set [1] is BP3 human B-cell lymphoma cell line. The experiment in a line: Annexin V-FITC and propidium iodide assay. The class given is cell-based. The note with it: for EC50: Homo sapiens, B-cell, Table 3, Annexin V-FITC and propidium iodide assay, read-out: EC50 BP3.
For data set [2], the target named is Bcl-2 (Homo sapiens, UniProt P10415). The experiment in a line: Competitive fluorescence polarization assay (FPA), Bim BH3 peptide. It counts as binding. Background: Polarisation of emitted light reports the rotation of a fluorescent probe.
The target of data set [3] is T1, BCL-XL (Homo sapiens, UniProt Q07817). As to the kind of experiment: 1D 1H-NMR binding assay. Further details: key to 1D-^1H NMR: +++, Very Active; ++, Active; +, Mild; −, Weak. As to conditions: for 1D-^1H NMR: BCL-XL 25 μM, compound 200 μM. The method, then:
By observing the aliphatic region of the spectra, binding could be readily detected due to chemical shift changes in active site methyl groups of Ile, Leu, Thr, Val or Ala (region between −0.8 and 0.3 ppm). All experiments were performed with a 600 MHz spectrometer Bruker Avance 600 equipped with four rf channels and z-axis pulse-field gradients.
Target sequence in this assay (Q07817 whole entry): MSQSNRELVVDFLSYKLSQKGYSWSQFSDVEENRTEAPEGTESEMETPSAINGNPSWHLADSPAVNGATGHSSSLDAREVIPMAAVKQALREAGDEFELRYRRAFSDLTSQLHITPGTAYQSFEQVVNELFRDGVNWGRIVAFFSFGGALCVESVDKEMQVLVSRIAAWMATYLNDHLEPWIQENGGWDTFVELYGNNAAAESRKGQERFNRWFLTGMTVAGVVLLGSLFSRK

Data set [4] concerns the target T1, BCL-XL. The experiment in a line: Competitive fluorescence polarization assay (FPA), Bak BH3 peptide. It counts as binding. Further details: 100 nM GST-BCL-XL ΔTM protein. The method, then: For competitive binding assays, 100 nM GST-BCL-XL ΔTM protein was preincubated with the tested compound at varying concentrations in 47.5 μL PBS (pH=7.4) in 96-well black plates at room temperature for 10 min, then 2.5 μL of 100 nM FITC-labeled Bak BH3 peptide was added to produce a final volume of 50 μL. The wild-type and mutant Bak BH3 peptides were included in each assay plate as positive and negative controls, respectively. […] IC50 was determined by fitting the experimental data to a sigmoidal dose-response nonlinear regression model (SigmaPlot 10.0.1, Systat Software, Inc., San Jose, Calif., USA). Data reported are mean of three independent experiments±standard error (SE). […] Fluorescence polarization was measured after 10 min.
Target sequence in this assay (Q07817 1-209 limits assumed): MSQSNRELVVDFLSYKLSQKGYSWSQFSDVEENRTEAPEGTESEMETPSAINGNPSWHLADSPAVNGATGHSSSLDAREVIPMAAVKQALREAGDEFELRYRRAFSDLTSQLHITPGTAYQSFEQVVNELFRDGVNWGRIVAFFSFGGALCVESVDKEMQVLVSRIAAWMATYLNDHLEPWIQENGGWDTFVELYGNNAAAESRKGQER

Data set [5] deals with Mcl-1 (Homo sapiens, UniProt Q07820). The experiment in a line: Competitive fluorescence polarization assay (FPA), Bim BH3 peptide. It counts as binding.
Data set [6] in a line: Liver microsomal stability. It counts as in vitro ADME, rat. As to conditions: Table 6; rat liver microsomes, 1 h. An excerpt:
Liver Microsomal Stability.
(Microsomes from liver hold many membrane-bound enzymes, among them those of drug oxidation.)

Data set [7] in a line: Plasma stability. The class given is in vitro ADME, rat. As to conditions: Table 6; rat plasma, 1 h. The method, then:
Plasma Stability. A 20 μL aliquot of a 10 mM solution in DMSO of the test compound was added to 2.0 mL of heparinized rat plasma (Lampire, P1-150N) to obtain a 100 μM final solution. The mixture was incubated for 1 h at 37.5° C. Aliquots of 100 μL were taken (0, 30 min, 1 h) and diluted with 200 μL of MeOH containing internal standard.

For data set [8], the system named is human lymphoma RS11846 cell line. As to the kind of experiment: Apoptosis, Annexin V-FITC and propidium iodide assay. It counts as cell-based. As to conditions: for EC50: Homo sapiens.
Procedure: The apoptotic activity of the compounds against RS11846 cells was assessed by staining with Annexin V- and propidium iodide (PI). Lymphoma cell line, RS11846, was cultured in RPMI 1640 medium (Mediatech Inc., Herndon, Va. 20171) containing 10% fetal bovine serum (Mediatech Inc., Herndon, Va. 20171) and Penicillin/Streptomycin (Mediatech Inc., Herndon, Va. 20171). […] The percentage of viable cells was determined by FITC-Annexin V- and propidium iodide (PI)-labeling, using an Apoptosis Detection kit (BioVision Inc.), and analyzing stained cells by flow cytometry (FACSort; Bectin-Dickinson, Inc.; Mountain View, Calif.). Cells that were annexin-V-negative and PI-negative were considered viable.
Data set [9] relates to H460 human lung cell line. As to the kind of experiment: Cell viability, ATP-LITE assay. The class given is cell-based. As to conditions: Homo sapiens, NCI-H460. The protocol:
(§1) The activity of the compounds against human cancer cell lines (PC3ML, H460, H1299, RS11846) were assessed by using the ATP-LITE assay (PerkinElmer). All cells were seeded in either F12 or RPMI1640 medium with 5 mM L-glutamine supplemented with 5% fetal bovine serum (Mediatech Inc.), penicillin and streptomycin (Omega). For maintenance, cells were cultured in 5% FBS. Cells plated into 96 well plates at varying initial densities depending on doubling time. H460 and H1299 plated at 2000 cells/well, A549 and PC3 at 3000 cells/well, and RS118456S at 10,000 cells/well. Compounds were diluted to final concentrations with 0.1% DMSO. Prior to dispensing compounds onto cells, fresh 5% media was placed into wells. Administration of compounds occurred 24 hours after seeding into the fresh media. Cell viability was evaluated using ATP-LITE reagent (PerkinElmer) after 72 hours of treatment. Data were normalized to the DMSO control-treated cells using Prism version 5.01 (Graphpad Software).

Data set [10] deals with B6Bcl-2 transgenic mice. The protocol: Transgenic mice expressing BCL-2 have been described as the B6 line. The BCL-2 transgene res a minigene version of a t(14;18) translocation in which the human BCL-2 gene is fused with the immunoglobulin heavy-chain (IgH) locus and associated IgH enhancer. The transgene was propagated on the Balb/c background.
After 24 hours, B6BCL2 mice were sacrificed by intraperitoneal injection of lethal dose of Avertin. Spleen was removed and weighed. […] Spleen tissue was fixed in z-FIX for 3 days and rinsed in PBS, and saved for histological analysis of spleen (H&E staining and TUNEL assay).

For data set [11], the system named is H1299 cell line. The experiment in a line: Cell viability, ATP-LITE assay. It counts as cell-based, human. As to conditions: Homo sapiens, NCI-H1299. The method, then:
as §1

The test system of data set [12] is PC3ML cells. As to the kind of experiment: Cell viability, ATP-LITE assay. As to conditions: Homo sapiens, PC3-ML. It counts as cell-based, human. The method, then:
as §1

In data set [13] the test system is RS11846 cell line. The experiment in a line: Cell viability, ATP-LITE assay. The class given is cell-based. The note with it: Homo sapiens, Table 9; read-out: RS11846 EC50 (ATP-LITE assay). The protocol:
as §1

Setting [14] is: Table 3, Annexin V-FITC and propidium iodide assay, heading: EC50 RS11846, read-out: EC50 RS11846.
Setting [15] is: heading: EC50 H460, Table 3, ATP-LITE assay, read-out: EC50 H460.

Where two headings read alike, the source gives them in different places.

Sequence of Bcl-2 (P10415 whole entry): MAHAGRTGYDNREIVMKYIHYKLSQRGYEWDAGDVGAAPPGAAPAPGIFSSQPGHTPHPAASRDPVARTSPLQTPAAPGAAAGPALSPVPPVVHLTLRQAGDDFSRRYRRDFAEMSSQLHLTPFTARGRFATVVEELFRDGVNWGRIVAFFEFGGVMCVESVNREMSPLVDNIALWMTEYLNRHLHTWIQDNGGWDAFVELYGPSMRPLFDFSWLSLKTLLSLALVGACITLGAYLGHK
Sequence of Mcl-1 (Q07820 whole entry): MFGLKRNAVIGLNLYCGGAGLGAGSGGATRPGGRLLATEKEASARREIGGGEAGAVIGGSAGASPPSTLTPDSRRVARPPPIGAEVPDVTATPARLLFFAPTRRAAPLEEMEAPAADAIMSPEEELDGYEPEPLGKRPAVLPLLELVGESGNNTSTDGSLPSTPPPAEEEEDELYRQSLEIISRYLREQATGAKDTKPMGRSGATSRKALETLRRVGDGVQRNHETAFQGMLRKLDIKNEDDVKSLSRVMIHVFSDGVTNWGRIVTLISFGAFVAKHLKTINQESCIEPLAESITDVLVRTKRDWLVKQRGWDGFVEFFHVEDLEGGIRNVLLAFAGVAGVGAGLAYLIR

`CN(C)CC[C@H](CSc1ccccc1)Nc1ccc(S(=O)(=O)NC(=O)c2ccc(N3CCN(Cc4ccccc4-c4ccc(Cl)cc4)CC3)cc2)cc1[N+](=O)[O-]` [ABT-737, reference compound]: the “cell activity against BP3 cell lines” value in [1] is “no cell activity”.
Turning to `Cc1cc(C)c(CNC(=O)c2c(O)c(O)cc3c(O)c(-c4c(C)cc5c(C(=O)NCc6c(C)cc(C)cc6C)c(O)c(O)cc5c4O)c(C)cc23)c(C)c1` [Compound 8j, 1,1′,6,6′,7,7′-hexahydroxy-3,3′-dimethyl-N^5,N^5′-bis(2,4,6-trimethylbenzyl)-2,2′-binaphthyl-5,5′-dicarboxamide], the IC50 in [2] came out at 0.7 µM; in data set [4] (read-out: IC50 FPA Bcl-XL) it was 0.8 µM; in data set [5] it was 1.1 µM. Further, the “1D-^1H NMR” value in data set [3] (Table 3) is on record as “++”.
Regarding `Cc1cc2c(C(=O)NCCc3ccccc3)c(O)c(O)cc2c(O)c1-c1c(C)cc2c(C(=O)NCCc3ccccc3)c(O)c(O)cc2c1O` [Compound 8n, 1,1′,6,6′,7,7′-hexahydroxy-3,3′-dimethyl-N^5,N^5′-diphenethyl-2,2′-binaphthyl-5,5′-dicarboxamide], in data set [6], the “Microsomal Stability (T = 1 h)” value came out at 60%. For the same compound, in data set [7], the “Plasma stability (T = 1 h)” value is 63%. The IC50 was 0.15 µM in data set [2], 0.8 µM in data set [4] (read-out: IC50 FPA Bcl-XL) and 0.3 µM in data set [5]. The “1D-^1H NMR” value in [3] (Table 3) is recorded as “++”.
As for `Cc1cc2c(C(=O)NCCc3ccc(Cl)cc3)c(O)c(O)cc2c(O)c1-c1c(C)cc2c(C(=O)NCCc3ccc(Cl)cc3)c(O)c(O)cc2c1O` [Compound 8t, N^5,N^5′-bis(4-chlorophenethyl)-1,1′,6,6′,7,7′-hexahydroxy-3,3′-dimethyl-2,2′-binaphthyl-5,5′-dicarboxamide], the 50% effective concentration (EC50) in data set [8] (setting [14]) amounted to 5.1 µM; in data set [1], 0.7 µM; in [9] (setting [15]), 1.3 µM. Moreover, in data set [3] (Table 3), the “1D-^1H NMR” value is on record as “++”.
With `Cc1cc2c(CC3CCCC3)c(O)c(O)cc2c(O)c1-c1c(C)cc2c(CC3CCCC3)c(O)c(O)cc2c1O` [Compound 12c, 5,5′-bis(cyclopentylmethyl)-3,3′-dimethyl-2,2′-binaphthyl-1,1′,6,6′,7,7′-hexaol], the signs of toxicity result in data set [10] (72 μmol/kg and even 120 μmol/kg) is “no significant signs of toxicity”. In addition, the Tox in data set [10] (Bcl-2 transgenic mouse, single ip injection 72 μmol/kg) was 1+. Besides, the “Microsomal Stability (T = 1 h)” value in [6] worked out at 75%. In addition, the EC50 in data set [11] (ATP-LITE assay, read-out: EC50 H1299) worked out at 10.9 µM; in data set [12] (ATP-LITE assay, read-out: EC50 PC3ML) it was 11.2 µM; in data set [8] (Annexin V-FITC and propidium iodide assay, read-out: EC50 RS11846), 4.5 µM; in [9] (ATP-LITE assay, read-out: EC50 H460) it was 1.8 µM. Also, the “Plasma stability (T = 1 h)” value in [7] worked out at 81%. Further, the “1D-^1H NMR” value in [3] (Table 4) is reported as “+”.
Take `Cc1cc2c(C(=O)O)c(O)c(O)cc2c(O)c1-c1c(C)cc2c(C(=O)O)c(O)c(O)cc2c1O` [Compound 14, 1,1′,6,6′,7,7′-hexahydroxy-3,3′-dimethyl-2,2′-binaphthyl-5,5′-dicarboxylic acid]: the concentration for a half-maximal effect (EC50) in data set [11] (heading: EC50 H1299, Table 3, ATP-LITE assay, read-out: EC50 H1299) is more than 30 µM; in data set [12] (Table 3, ATP-LITE assay, heading: EC50 PC3ML, read-out: EC50 PC3ML), more than 30 µM; in data set [8] (setting [14]), more than 30 µM; in data set [1] (heading: EC50 BP3), more than 30 µM; in data set [9] (setting [15]), more than 30 µM. In [8] (in words), the “induction of apoptosis of the RS11846 cell line” value is reported as “weak or no apoptosis”. Moreover, the “1D-^1H NMR” value in data set [3] (Table 3) is on record as “−”.
`Cc1cc2c(C(=O)CCc3ccc(F)cc3)c(O)c(O)cc2c(O)c1-c1c(C)cc2c(C(=O)CCc3ccc(F)cc3)c(O)c(O)cc2c1O` [Compound XVI, 1,1′-(1,1′,6,6′,7,7′-hexahydroxy-3,3′-dimethyl-2,2′-binaphthyl-5,5′-diyl)bis(3-(4-fluorophenyl)propan-1-one)]: the 50% effective concentration (EC50) in data set [11] (Table 9, read-out: H1299 EC50) turned out to be 2.2 µM; in data set [12] (Table 9, read-out: PC3ML EC50), 2.8 µM; in [8] (Table 9, read-out: RS11846 EC50 (Annexin V- and propidium iodide assay)) it was 3.1 µM; in data set [13] it was 2.3 µM; in data set [9] (Table 9, read-out: H460 EC50), 1.5 µM. For the same compound, in data set [3] (Table 9), the “1D ^1H-NMR Binding Assay (BCL-XL)” value is “++”. In data set [4] (Table 9, read-out: FPA IC50 (BCL-XL)), the IC50 is 0.14 µM.
